Measurements taken from US7557144B1, “Modulation of protein expression using carbocyclic aryl alkenoic acid derivatives” (The Johns Hopkins University, priority 2000, dated 2009).

Columns and labels:
CFTR = assay: Nasal potential difference in CF patients; type: in vivo, human
Source text: Standard methods for detecting and quantifying electrical potentials from nasal epithelia have been reported. See e.g., Zeitlin, P. L. (2000) in Mol. Therapy 1: 1; Noone, P. G. et al. (2000) in Mol. Therapy 1: 105-114; Caplen, J. J. et al. (1995) Nat. Med. 1: 39-46; Middleton, P. G. (1994) in Eur. Respir. 7: 2050-2056; the disclosures of which are hereby incorporated by reference.
This is consistent with the presence of a functional CFTR in the nasal epithelial cell surface.
FIG. 16D the same individual as in […] 18 days on 4-phenylbutyrate.

calnexin = assay: Calnexin immunoblot of IB3-1 lysates; type: cell-based, human; settings: IB3-1 cells, increasing concentrations of 4-PBA
Experimental: 3. Immunoblot analysis. Whole cell lysates were prepared by solubilization with 2% SDS at 95° C. Protein concentration in the lysates was determined using the Bio-Rad DC assay reagents with bovine plasma g-globulin as a standard (Bio-Rad Laboratories, Hercules, Calif.). Equal amounts of protein was resolved on 5, 7, 8, or 9% SDS-polyacrylamide gels. Proteins were transferred to nitrocellulose, and immunodetection was performed as previously described (25). Nonspecific binding was blocked by incubation of the nitrocellulose with 2% gelatin or 10% nonfat day milk. Primary antisera and secondary antibodies were applied in buffer containing 0.4% BSA overnight at 4° C. and for 1 h at room temperature, respectively. Detection of immunoreactivity was performed with the enhanced chemiluminescence reagent (ECL, Amer-sham) and fluorography. Recombinant bovine Hsc70 ([…]) was purchased from Stressgen Biotechnologies for use in constructing a standard curve of Hsc70 immunoreactivity. Immunoblots containing the bovine Hsc70 were probed with the Hsc70-specific polyclonal antiserum.
Whether 4-PBA would regulate expression of a number of other molecular chaperones in IB3-1 cells (FIG. 2) was assessed next. […] Hsp90 is required for correct folding and function of a number of cellular proteins (16). […]

SMILES: O=C(O)CCCc1ccccc1 [4-PBA, 4-phenylbutyric acid]
- nasal potential difference response to low chloride/isoproterenol (CFTR; CF patient (deltaF508 homozygous), 20 gm daily for 7 days): induce chloride transport
- nasal potential difference response to low chloride/isoproterenol (CFTR; same CF patient after 18 days on 4-phenylbutyrate): continues to sustain chloride transport
- expression of calnexin (calnexin): did not affect
